Laboratory results taken from US20260374766A1, “METHODS FOR TREATING CANCER” (Antares Therapeutics, Inc., priority 2022, published 2026).
Like-named read-outs stand apart in the source and are kept apart here.

Columns and labels:
[1] = target: T1, p53 Y220C mutant protein (amino acid residues 94-293) (Homo sapiens, UniProt P04637, Y220C); experiment: Surface Plasmon Resonance (SPR) assay, Kd_kinetic; type: binding; conditions: SPR, p53 Y220C, read-out: SPR P53 Y220C KD kinetic
T1 construct: p53 Y220C mutant protein (amino acid residues 94-293)
Outline: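 Temperature held at 16 or 20 °C during Biacore 8K runs. Buffer: 50 mM Tris, pH 7.5, 100 mM NaCl, 1 mM DTT, 0.01% Brij35, 0.05% Tween-20, 1% DMSO.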

H1299 p53 Y220C = experiment: Cell Proliferation Assay (CellTiter-Glo, CTG), H1299 p53 Y220C (NClH1299-inducible p53 Y220C); type: cell-based; conditions: Homo sapiens, NCI-H1299, 120 h, CellTiter-Glo, 5 days
Outline: (§1)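 NClH1299 lines stably transduced with Tet-inducible p53 Y220C or R273H, plus NUGC3, were treated with compound for 5 days at 250-500 cells/well. IC50 derived from CellTiter-Glo luminescent signal after 10 min room-temperature incubation.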

[2] = target: T1, p53 Y220C mutant protein (amino acid residues 94-293); experiment: Thermal Shift Assay (TSA), dTM; type: binding; conditions: for ΔTm at 100 µM: 100 uM compound; for ΔTm at 10 µM: 10 uM compound
Procedure: Thermal Shift Assay (TSA) Protocol
5 μM recombinant p53 Y220C mutant protein (amino acid residues 94-293) was incubated with 10 μM or 100 μM compound for 3 hours at 20 °C in buffer containing 20 mM HEPES, pH7.4, 100 mM NaCl, 0.01% Pluronic F-127, and 1% DMSO in the presence of 400-fold diluted Sypro Orange (ThermoFisher Scientific catalog number 4461146), on a 384-well PCR plate (Applied Biosystems catalog number 4483285). The volume was 5 μL/well. The sealed plate was then loaded onto a QuantStudio 7 Flex instrument for melting temperature (TM) measurement. The temperature was increased from 30 °C to […], at a rate of 0.03 °C/second. Data were fit into a Boltzmann two-state model to determine the TM.

H1299 p53 R273H = experiment: Cell Proliferation Assay (CellTiter-Glo, CTG), H1299 p53 R273H (NClH1299-inducible p53 R273H); type: cell-based; conditions: Homo sapiens, NCI-H1299, 120 h, CellTiter-Glo, 5 days
Outline: as §1

NUGC3 p53 Y220C = experiment: Cell Proliferation Assay (CellTiter-Glo, CTG), NUGC3 p53 Y220C; type: cell-based; conditions: Homo sapiens, NUGC-3, 120 h, CellTiter-Glo, 5 days
Outline: as §1

p53 Y220C = p53 Y220C (Homo sapiens, UniProt P04637, Y220C); experiment: Luciferase Reporter Assay (Luc), p53 response element, NClH1299 cells with inducible p53 Y220C; type: cell-based; conditions: luciferase reporter, NClH1299 inducible p53 Y220C, 6 hour; for AC50: read-out: Luc P53 Y220C AC50
Outline: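 H1299 cells induced with 0.5 ug/mL doxycycline for 24 hours, then exposed to compound for 6 hours. p53 response-element luciferase read by One-Glo luminescence after 5 min shaking at room temperature.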

[3] = thermal shift, read-out: TSA P53 Y220C dTM (100 uM)
[4] = 10 uM tool compound as positive control
[5] = thermal shift, read-out: TSA P53 Y220C dTM (10 uM)
[6] = NClH1299-inducible p53 Y220C cells
[7] = p53 Y220C, read-out: TSA P53 Y220C dTM
[8] = NClH1299-inducible p53 R273H cells

SMILES | Kd ([1]; kinetic KD) [nM] | IC50 (H1299 p53 Y220C; H1299 p53 Y220C) [nM] | ΔTm at 100 µM [2, 3] [°C] | IC50 (H1299 p53 R273H; H1299 p53 R273H) [nM] | IC50 (NUGC3 p53 Y220C; NUGC3 p53 Y220C) [nM] | Emax (p53 Y220C; [4]) [%] | AC50 (p53 Y220C) [nM] | ΔTm at 10 µM [2, 5] [°C] | Kd [1] [nM] | IC50 (H1299 p53 Y220C; [6]) [nM] | ΔTm at 10 µM [2, 7] [°C] | IC50 (H1299 p53 R273H; [8]) [nM] | IC50 (NUGC3 p53 Y220C; NUGC3 cells) [nM] | AC50 (p53 Y220C; AC50) [nM] | Emax (p53 Y220C; Emax) [%] | ΔTm at 100 µM [2, 7] [°C]
COc1cc(S(C)(=O)=O)ccc1NCC#Cc1nc2c(NC3CC4(C3)CN(C)C4)cccn2c1CC(F)(F)F [Example 114, N-(2-{3-[(4-methanesulfonyl-2-methoxyphenyl)amino]prop-1-yn-1-yl}-3-(2,2,2-trifluoroethyl)imidazo[1,2-a]pyridin-8-yl)-2-methyl-2-azaspiro[3.3]heptan-6-amine] | 10 to 100 | > 3000 | ≥ 10 | 5000 to 8000 | 1500 to 3000 | 70 to 80 | > 3000 | – | – | – | – | – | – | – | – | –
CNC(=O)c1ccc(NCC#Cc2nc3c(NCC4(F)CN(C)C4)cccn3c2SC(F)(F)F)c(OC)c1 [Example 181] | 10 to 100 | 750 to 1500 | 5 to 10 | 5000 to 8000 | 1500 to 3000 | 80 to 90 | 1500 to 3000 | 5 to 10 | – | – | – | – | – | – | – | –
CNC(=O)c1ccc(OC)c(NCC#Cc2nc3c(N[C@@H]4CN(C)C[C@@H]4F)cccn3c2SC(F)(F)F)n1 [Example 171] | < 10 | < 750 | ≥ 10 | ≥ 10000 | < 750 | 70 to 80 | < 750 | ≥ 10 | – | – | – | – | – | – | – | –
CNC(=O)c1ccc(OC)c(NCC#Cc2nn3c(N[C@@H]4CN(C)C[C@@H]4F)cccc3c2SC(F)(F)F)n1 [Example 253] | – | – | – | – | – | – | – | – | < 10 | < 750 | ≥ 10 | ≥ 10000 | < 750 | < 750 | 80 to 90 | –
CNC(=O)c1ccc(OC[C@@H](C)O)c(NCC#Cc2cc3c(N[C@@H]4CCN(C)C[C@@H]4F)nccn3c2SC(F)(F)F)c1 (single isomer, unassigned) [Example 356] | – | – | – | – | – | – | – | – | < 10 | < 750 | ≥ 10 | ≥ 10000 | < 750 | < 750 | > 90 | –
CNC(=O)c1ccc(OC[C@H](C)O)c(NCC#Cc2cc3c(N[C@@H]4CCN(C)C[C@@H]4F)nccn3c2SC(F)(F)F)c1 (single isomer, unassigned) [Example 355] | – | – | – | – | – | – | – | – | < 10 | < 750 | ≥ 10 | ≥ 10000 | < 750 | < 750 | > 90 | –
COc1cc(C(=O)N(C)C)ccc1NCC#Cc1nc2c(N[C@@H]3CCN(C)C[C@@H]3F)cccn2c1SC(F)(F)F [Example 88, 4-{[3-(8-{[(3S,4R)-3-fluoro-1-methylpiperidin-4-yl]amino}-3-[(trifluoromethyl)sulfanyl]imidazo[1,2-a]pyridin-2-yl)prop-2-yn-1-yl]amino}-3-methoxy-N, N-dimethylbenzamide] | < 10 | < 750 | ≥ 10 | 8000 to 10000 | < 750 | 80 to 90 | < 750 | ≥ 10 | – | – | – | – | – | – | – | –
CNC(=O)c1ccc(OC)c(NCC#Cc2nn3c(N[C@@H]4CCN(C)C[C@@H]4F)cccc3c2SC(F)F)c1 [Example 194] | < 10 | < 750 | 5 to 10 | 5000 to 8000 | < 750 | > 90 | < 750 | ≥ 10 | – | – | – | – | – | – | – | –
CNC(=O)c1ccc(NCC#Cc2cc3c(N[C@@H]4CCN(C)C[C@@H]4F)nccn3c2SC(F)F)c(OC)c1 [Example 196, 4-[(3-{6-[(difluoromethyl)sulfanyl]-1-{[(3S,4R)-3-fluoro-1-methylpiperidin-4-yl]amino}pyrrolo[1,2-a]pyrazin-7-yl}prop-2-yn-1-yl)amino]-3-methoxy-N-methylbenzamide; formic acid] | < 10 | < 750 | ≥ 10 | ≥ 10000 | < 750 | > 90 | < 750 | ≥ 10 | – | – | – | – | – | – | – | –
CNC(=O)c1cnc(OC)c(NCC#Cc2nc3c(N[C@@H]4C[C@H]5CC[C@H](N5)[C@@H]4F)cccn3c2SC(F)(F)F)c1 [Example 264] | – | – | – | – | – | – | – | – | < 10 | < 750 | ≥ 10 | 8000 to 10000 | < 750 | < 750 | 70 to 80 | ≥ 10
COc1cc(S(=O)(=O)C2CC2)ccc1NCC#Cc1nc2c(N[C@@H]3CCN(C)C[C@@H]3F)cccn2c1SC(F)(F)F [Example 81, (3S,4R)—N-[2-(3-{[4-(cyclopropanesulfonyl)-2-methoxyphenyl]amino}prop-1-yn-1-yl)-3-[(trifluoromethyl)sulfanyl]imidazo[1,2-a]pyridin-8-yl]-3-fluoro-1-methylpiperidin-4-amine] | < 10 | < 750 | ≥ 10 | 5000 to 8000 | < 750 | 80 to 90 | < 750 | – | – | – | – | – | – | – | – | –
CCS(=O)(=O)c1ccc(NCC#Cc2nc3c(N[C@@H]4CCN(C)C[C@@H]4F)cccn3c2SC(F)(F)F)c(OC)c1 [Example 79, (3S,4R)—N-[2-(3-{[4-(ethanesulfonyl)-2-methoxyphenyl]amino}prop-1-yn-1-yl)-3-[(trifluoromethyl)sulfanyl]imidazo [1,2-a]pyridin-8-yl]-3-fluoro-1-methylpiperidin-4-amine] | < 10 | < 750 | ≥ 10 | 8000 to 10000 | < 750 | 80 to 90 | < 750 | – | – | – | – | – | – | – | – | –
CCNC(=O)c1ccc(NCC#Cc2nn3c(N[C@@H]4CCN(C)C[C@@H]4F)cccc3c2SC(F)F)c(OC)c1 [Example 317] | – | – | – | – | – | – | – | – | < 10 | < 750 | ≥ 10 | ≥ 10000 | < 750 | < 750 | 80 to 90 | –
CNC(=O)c1ccc(NCC#Cc2nc3c(NC4CCN(C)CC4)cc(N)cn3c2CC(F)(F)F)c(OC)c1 [Example 40, 4-[(3-{6-amino-8-[(1-methylpiperidin-4-yl)amino]-3-(2,2,2-trifluoroethyl)imidazo[1,2-a]pyridin-2-yl}prop-2-yn-1-yl)amino]-3-methoxy-N-methylbenzamide] | 10 to 100 | > 3000 | 5 to 10 | ≥ 10000 | > 3000 | < 70 | > 3000 | – | – | – | – | – | – | – | – | –
CNC(=O)c1ccc(NCC#Cc2cc3c(N[C@@H]4CCN(C)C[C@@H]4F)cccn3c2SC(F)F)c(OC)c1 [Example 135, 4-[(3-{3-[(difluoromethyl)sulfanyl]-8-{[(3S,4R)-3-fluoro-1-methylpiperidin-4-yl]amino}indolizin-2-yl}prop-2-yn-1-yl)amino]-3-methoxy-N-methylbenzamide] | < 10 | < 750 | – | 8000 to 10000 | < 750 | > 90 | < 750 | ≥ 10 | – | – | – | – | – | – | – | –
CNC(=O)c1ccc(OC)c(NCC#Cc2cc3c(N[C@@H]4CCN(CC#N)C[C@@H]4F)nccn3c2SC(F)(F)F)c1 [Example 353] | – | – | – | – | – | – | – | – | < 10 | < 750 | ≥ 10 | ≥ 10000 | < 750 | < 750 | > 90 | –
CNC(=O)c1cnc(OC)c(NCC#Cc2nc3c(N[C@@H]4CCN(C)C[C@@H]4F)nccn3c2SC(F)(F)F)c1 [Example 254] | – | – | – | – | – | – | – | – | < 10 | < 750 | ≥ 10 | ≥ 10000 | < 750 | < 750 | 80 to 90 | –
